Laboratory results as given in paper PMC9005681, “Use of AD Informer Set compounds to explore validity of novel targets in Alzheimer's disease pathology” (Alzheimer's & Dementia : Translational Research & Clinical …, 2022).
Where “and” joins values, the source holds several entries; their conditions need not be identical. Equal values may be shown once.

Columns and labels:
Experiment in all cases: PDSP GPCR panel primary binding assays at 10 μM
[1] = target: T1, cloned human or rodent CNS receptors, channels, and transporters (PDSP panel) (Rattus norvegicus, UniProt P16257); conditions: Receptor PBR; primary assay, 10 μM
T1 construct: expressed in transfected cells
Procedure: (§1) GPCR panel: Screening against the receptors within the PDSP panel offers an assessment of off-target pharmacological activity at cloned human or rodent CNS receptors, channels, and transporters that could confound CNS-related phenotypes. A total of 46–47 primary binding assays were run in quadruplicate on these compounds at 10 μM, with follow-up secondary binding assays in 11-point dose-response in triplicate for select compounds versus select receptors. Secondary binding assays were executed for all receptors where test compound displaced an average of >50% of radio-labeled standard ligand. As an exception, no secondary assays were carried out for H3, PBR, or GABAA. […]

[2] = target: T2, cloned human or rodent CNS receptors, channels, and transporters (PDSP panel) (Homo sapiens, UniProt P14416); conditions: Receptor D2, primary assay, 10 μM; for Mean %: mean of Inhibition 1-4
T2 construct: expressed in transfected cells
Procedure: as §1

[3] = target: T3, cloned human or rodent CNS receptors, channels, and transporters (PDSP panel) (Homo sapiens, UniProt P35462); conditions: primary assay
T3 construct: expressed in transfected cells
Procedure: as §1

[4] = target: T4, cloned human or rodent CNS receptors, channels, and transporters (PDSP panel) (Homo sapiens, UniProt P41595); conditions: Receptor 5-HT2B, primary assay, 10 μM; for Mean %: mean of Inhibition 1-4
T4 construct: expressed in transfected cells
Procedure: as §1

[5] = target: T5, cloned human or rodent CNS receptors, channels, and transporters (PDSP panel) (Homo sapiens, UniProt P41145); conditions: Receptor KOR, primary assay, 10 μM; for Mean %: mean of Inhibition 1-4
T5 construct: expressed in transfected cells
Procedure: as §1

[6] = target: T6, cloned human or rodent CNS receptors, channels, and transporters (PDSP panel) (Homo sapiens, UniProt P28566); conditions: Receptor 5-HT1E, primary assay, 10 μM; for Mean %: mean of Inhibition 1-4
T6 construct: expressed in transfected cells
Procedure: as §1

[7] = target: T7, cloned human or rodent CNS receptors, channels, and transporters (PDSP panel) (Homo sapiens, UniProt P23975); conditions: primary assay
T7 construct: expressed in transfected cells
Procedure: as §1

[8] = target: T8, cloned human or rodent CNS receptors, channels, and transporters (PDSP panel) (Homo sapiens, UniProt P08912); conditions: Receptor M5, primary assay, 10 μM; for Mean %: mean of Inhibition 1-4
T8 construct: expressed in transfected cells
T8 sequence (P08912 1-532): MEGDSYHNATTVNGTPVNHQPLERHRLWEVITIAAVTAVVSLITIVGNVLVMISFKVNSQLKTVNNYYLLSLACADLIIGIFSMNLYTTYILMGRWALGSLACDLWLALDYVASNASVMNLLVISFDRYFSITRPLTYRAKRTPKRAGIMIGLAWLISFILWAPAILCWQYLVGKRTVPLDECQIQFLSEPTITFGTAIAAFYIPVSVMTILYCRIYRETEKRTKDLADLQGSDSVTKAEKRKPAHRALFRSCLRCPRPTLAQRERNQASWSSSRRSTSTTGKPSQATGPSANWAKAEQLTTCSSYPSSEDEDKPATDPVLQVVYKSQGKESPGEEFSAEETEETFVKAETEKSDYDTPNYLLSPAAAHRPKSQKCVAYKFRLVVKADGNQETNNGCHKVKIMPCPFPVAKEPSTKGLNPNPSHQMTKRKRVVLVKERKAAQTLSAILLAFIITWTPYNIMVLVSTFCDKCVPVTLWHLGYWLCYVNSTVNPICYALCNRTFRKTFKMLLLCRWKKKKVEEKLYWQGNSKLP
Procedure: as §1

[9] = target: T9, cloned human or rodent CNS receptors, channels, and transporters (PDSP panel) (Homo sapiens, UniProt P50406); conditions: Receptor 5-HT6, primary assay, 10 μM; for Mean %: mean of Inhibition 1-4
T9 construct: expressed in transfected cells
Procedure: as §1

[10] = target: T10, cloned human or rodent CNS receptors, channels, and transporters (PDSP panel) (Homo sapiens, UniProt P21728); conditions: Receptor D1, primary assay, 10 μM; for Mean %: mean of Inhibition 1-4
T10 construct: expressed in transfected cells
Procedure: as §1

[11] = target: T11, cloned human or rodent CNS receptors, channels, and transporters (PDSP panel) (Homo sapiens, UniProt P28335); conditions: Receptor 5-HT2C, primary assay, 10 μM; for Mean %: mean of Inhibition 1-4
T11 construct: expressed in transfected cells
T11 sequence (P28335 33-458): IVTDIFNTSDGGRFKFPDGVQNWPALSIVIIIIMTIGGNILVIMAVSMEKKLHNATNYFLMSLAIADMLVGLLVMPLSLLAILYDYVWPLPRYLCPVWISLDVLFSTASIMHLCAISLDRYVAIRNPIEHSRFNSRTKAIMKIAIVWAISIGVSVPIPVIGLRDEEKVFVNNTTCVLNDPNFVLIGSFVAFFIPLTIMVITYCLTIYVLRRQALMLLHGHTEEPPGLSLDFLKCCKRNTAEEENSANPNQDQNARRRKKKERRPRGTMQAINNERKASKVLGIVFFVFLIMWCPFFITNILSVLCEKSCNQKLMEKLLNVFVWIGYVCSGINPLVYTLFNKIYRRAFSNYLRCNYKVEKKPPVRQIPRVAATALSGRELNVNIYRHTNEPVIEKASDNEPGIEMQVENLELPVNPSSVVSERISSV
Procedure: as §1

[12] = Receptor NET, 10 μM, mean of Inhibition 1-4

T9 sequence (P50406 whole entry): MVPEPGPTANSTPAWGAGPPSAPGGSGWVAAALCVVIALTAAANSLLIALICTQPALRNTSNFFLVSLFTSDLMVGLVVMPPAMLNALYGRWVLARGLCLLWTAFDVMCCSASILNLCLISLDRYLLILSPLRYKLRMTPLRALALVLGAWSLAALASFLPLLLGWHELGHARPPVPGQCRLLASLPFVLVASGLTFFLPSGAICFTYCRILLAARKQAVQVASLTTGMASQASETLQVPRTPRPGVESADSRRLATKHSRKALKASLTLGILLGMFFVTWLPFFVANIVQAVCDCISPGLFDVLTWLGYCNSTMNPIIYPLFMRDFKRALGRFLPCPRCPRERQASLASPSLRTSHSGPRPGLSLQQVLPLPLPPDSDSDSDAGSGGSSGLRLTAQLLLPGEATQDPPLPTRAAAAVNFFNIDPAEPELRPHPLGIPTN
T4 sequence (P41595 whole entry): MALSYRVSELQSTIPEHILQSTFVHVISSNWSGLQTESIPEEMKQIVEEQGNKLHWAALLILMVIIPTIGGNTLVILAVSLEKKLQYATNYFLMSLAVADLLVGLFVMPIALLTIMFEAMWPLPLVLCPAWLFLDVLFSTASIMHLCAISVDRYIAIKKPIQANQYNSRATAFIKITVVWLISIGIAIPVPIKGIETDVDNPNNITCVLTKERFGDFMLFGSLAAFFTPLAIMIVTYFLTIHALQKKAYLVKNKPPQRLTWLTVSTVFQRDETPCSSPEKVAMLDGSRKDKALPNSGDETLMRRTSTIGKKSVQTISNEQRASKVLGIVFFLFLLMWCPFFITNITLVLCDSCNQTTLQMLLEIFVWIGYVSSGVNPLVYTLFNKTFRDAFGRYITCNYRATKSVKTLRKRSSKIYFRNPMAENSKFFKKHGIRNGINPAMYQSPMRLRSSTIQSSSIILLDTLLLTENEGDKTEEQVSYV
T2 sequence (P14416 whole entry): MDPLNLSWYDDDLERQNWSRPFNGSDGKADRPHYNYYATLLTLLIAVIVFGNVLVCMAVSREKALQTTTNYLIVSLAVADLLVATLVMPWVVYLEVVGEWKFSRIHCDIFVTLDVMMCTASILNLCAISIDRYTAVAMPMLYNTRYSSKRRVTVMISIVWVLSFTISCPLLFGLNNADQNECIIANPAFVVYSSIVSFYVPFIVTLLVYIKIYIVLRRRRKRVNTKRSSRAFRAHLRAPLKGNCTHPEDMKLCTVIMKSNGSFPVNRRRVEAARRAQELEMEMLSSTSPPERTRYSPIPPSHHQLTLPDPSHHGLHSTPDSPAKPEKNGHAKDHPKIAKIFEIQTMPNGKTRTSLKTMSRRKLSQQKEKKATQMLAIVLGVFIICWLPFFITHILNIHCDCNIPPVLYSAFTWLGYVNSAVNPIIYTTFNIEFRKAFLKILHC
T5 sequence (P41145 whole entry): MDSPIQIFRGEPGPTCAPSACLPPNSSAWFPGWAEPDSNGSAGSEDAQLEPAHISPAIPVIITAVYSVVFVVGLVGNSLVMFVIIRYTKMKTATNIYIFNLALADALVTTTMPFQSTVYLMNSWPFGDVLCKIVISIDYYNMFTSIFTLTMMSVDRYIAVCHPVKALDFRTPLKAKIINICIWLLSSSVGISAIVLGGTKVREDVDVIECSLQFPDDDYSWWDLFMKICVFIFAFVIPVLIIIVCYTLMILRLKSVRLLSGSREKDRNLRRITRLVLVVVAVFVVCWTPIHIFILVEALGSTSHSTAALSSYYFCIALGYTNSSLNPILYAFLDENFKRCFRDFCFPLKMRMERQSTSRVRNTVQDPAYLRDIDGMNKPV
T10 sequence (P21728 whole entry): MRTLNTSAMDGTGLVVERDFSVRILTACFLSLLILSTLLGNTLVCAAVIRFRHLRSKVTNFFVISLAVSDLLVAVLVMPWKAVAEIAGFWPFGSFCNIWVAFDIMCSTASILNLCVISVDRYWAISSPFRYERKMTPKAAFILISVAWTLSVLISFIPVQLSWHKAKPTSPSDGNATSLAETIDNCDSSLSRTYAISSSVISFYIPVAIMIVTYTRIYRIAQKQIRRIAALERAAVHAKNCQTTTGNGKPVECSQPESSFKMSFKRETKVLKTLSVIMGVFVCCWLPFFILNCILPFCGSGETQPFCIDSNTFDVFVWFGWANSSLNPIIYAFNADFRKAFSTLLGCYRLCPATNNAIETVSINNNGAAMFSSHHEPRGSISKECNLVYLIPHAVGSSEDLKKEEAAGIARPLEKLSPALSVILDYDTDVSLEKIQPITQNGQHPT
T6 sequence (P28566 whole entry): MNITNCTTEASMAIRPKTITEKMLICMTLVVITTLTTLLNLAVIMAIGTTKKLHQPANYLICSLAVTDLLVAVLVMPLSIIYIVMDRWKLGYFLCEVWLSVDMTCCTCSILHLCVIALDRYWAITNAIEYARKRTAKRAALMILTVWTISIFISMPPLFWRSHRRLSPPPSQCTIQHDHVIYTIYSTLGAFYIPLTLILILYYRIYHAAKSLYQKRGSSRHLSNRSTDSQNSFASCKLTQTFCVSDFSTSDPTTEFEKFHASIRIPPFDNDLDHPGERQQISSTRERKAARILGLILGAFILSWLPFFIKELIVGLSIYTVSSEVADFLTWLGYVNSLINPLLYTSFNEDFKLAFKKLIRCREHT
T3 sequence (P35462 whole entry): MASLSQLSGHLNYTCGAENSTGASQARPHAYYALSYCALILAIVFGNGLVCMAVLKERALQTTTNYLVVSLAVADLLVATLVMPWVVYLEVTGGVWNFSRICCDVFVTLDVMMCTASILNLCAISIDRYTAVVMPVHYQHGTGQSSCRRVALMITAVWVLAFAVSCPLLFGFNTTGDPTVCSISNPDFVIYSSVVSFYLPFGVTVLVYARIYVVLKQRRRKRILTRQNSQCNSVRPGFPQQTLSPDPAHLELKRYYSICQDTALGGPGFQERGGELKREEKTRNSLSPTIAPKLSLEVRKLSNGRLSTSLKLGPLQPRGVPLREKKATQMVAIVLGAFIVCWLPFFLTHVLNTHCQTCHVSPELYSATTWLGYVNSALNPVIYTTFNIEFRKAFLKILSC
T7 sequence (P23975 whole entry): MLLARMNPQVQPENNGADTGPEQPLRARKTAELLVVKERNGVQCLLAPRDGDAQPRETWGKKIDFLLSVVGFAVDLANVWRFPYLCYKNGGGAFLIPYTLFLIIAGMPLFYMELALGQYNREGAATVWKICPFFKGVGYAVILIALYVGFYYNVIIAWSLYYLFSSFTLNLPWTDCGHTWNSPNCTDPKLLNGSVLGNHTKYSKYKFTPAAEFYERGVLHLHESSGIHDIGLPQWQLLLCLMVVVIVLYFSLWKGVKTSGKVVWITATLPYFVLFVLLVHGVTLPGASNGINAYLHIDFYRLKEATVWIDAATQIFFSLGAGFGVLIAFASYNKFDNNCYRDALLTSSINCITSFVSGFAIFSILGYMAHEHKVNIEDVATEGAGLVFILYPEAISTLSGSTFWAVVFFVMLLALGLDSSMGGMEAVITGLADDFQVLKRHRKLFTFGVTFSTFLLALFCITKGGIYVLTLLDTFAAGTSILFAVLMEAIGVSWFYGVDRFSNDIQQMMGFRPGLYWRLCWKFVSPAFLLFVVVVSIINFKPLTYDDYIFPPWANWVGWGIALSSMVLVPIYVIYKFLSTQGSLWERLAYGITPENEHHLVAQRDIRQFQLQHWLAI

**Q.** CCCCNc1ncc2c(-c3ccc(CN4CCN(C)CC4)cc3)cn([C@H]3CC[C@H](O)CC3)c2n1 [UNC2025C, UNC2025] was tested. Which “Inhibition 4” value [1] did it give?
**A.** Its value is 12.81% and 23.25%.

**Q.** And the “Inhibition 1” value [2]?
**A.** Its value is 11.9%.

**Q.** And the “Inhibition 2” value [2]?
**A.** Its value is -4.63%.

**Q.** And the “Inhibition 3” value [2]?
**A.** Its value is 2.76%.

**Q.** And the “Inhibition 4” value [2]?
**A.** Its value is -1.81%.

**Q.** What about the Mean % [2] of the same compound?
**A.** The Mean % was 2.06%.

**Q.** And the “Inhibition 1” value ([3]; Receptor D3, 10 μM)?
**A.** Its value is 18.68%.

**Q.** And the “Inhibition 2” value ([3]; Receptor D3, 10 μM)?
**A.** The value was 25.04%.

**Q.** What about the “Inhibition 3” value ([3]; Receptor D3, 10 μM) of the same compound?
**A.** The value was 10.39%.

**Q.** What about the “Inhibition 4” value ([3]; Receptor D3, 10 μM) of the same compound?
**A.** The value was 7.11%.

**Q.** What about the Mean % ([3]; Receptor D3, 10 μM, mean of Inhibition 1-4) of the same compound?
**A.** Its Mean % is 15.31%.

**Q.** And the “Inhibition 1” value [4]?
**A.** Its value is 1.21%.

**Q.** What about the “Inhibition 2” value [4] of the same compound?
**A.** Its value is 8.76%.

**Q.** And the “Inhibition 3” value [4]?
**A.** Its value is -7.6%.

**Q.** What about the “Inhibition 4” value [4] of the same compound?
**A.** Its value is 18.41%.

**Q.** And the Mean % [4]?
**A.** Its Mean % is 5.2%.

**Q.** What about the “Inhibition 1” value [5] of the same compound?
**A.** Its value is -17.91%.

**Q.** What about the “Inhibition 2” value [5] of the same compound?
**A.** Its value is -11.2%.

**Q.** What about the “Inhibition 3” value [5] of the same compound?
**A.** Its value is -40.41%.

**Q.** What about the “Inhibition 4” value [5] of the same compound?
**A.** Its value is -19.03%.

**Q.** What about the Mean % [5] of the same compound?
**A.** The Mean % was -22.14%.

**Q.** What about the “Inhibition 1” value [6] of the same compound?
**A.** The value was 4.71%.

**Q.** And the “Inhibition 2” value [6]?
**A.** The value was -8.74%.

**Q.** And the “Inhibition 3” value [6]?
**A.** Its value is 0.13%.

**Q.** And the “Inhibition 4” value [6]?
**A.** Its value is -9.18%.

**Q.** What about the Mean % [6] of the same compound?
**A.** Its Mean % is -3.27%.

**Q.** What about the “Inhibition 1” value ([7]; Receptor NET, 10 μM) of the same compound?
**A.** Its value is 67.05% and 40.06%.

**Q.** What about the “Inhibition 2” value ([7]; Receptor NET, 10 μM) of the same compound?
**A.** Its value is 52.92% and 42.04%.

**Q.** What about the “Inhibition 3” value ([7]; Receptor NET, 10 μM) of the same compound?
**A.** The value was 47% and 40.28%.

**Q.** What about the “Inhibition 4” value ([7]; Receptor NET, 10 μM) of the same compound?
**A.** The value was 46.05% and 54.77%.

**Q.** What about the Mean % [7, 12] of the same compound?
**A.** The Mean % was 53.26% and 44.29%.

**Q.** What about the “Inhibition 1” value [8] of the same compound?
**A.** Its value is 16.16%.

**Q.** What about the “Inhibition 2” value [8] of the same compound?
**A.** Its value is 21.19%.

**Q.** And the “Inhibition 3” value [8]?
**A.** Its value is 19.69%.

**Q.** And the “Inhibition 4” value [8]?
**A.** Its value is 10.93%.

**Q.** And the Mean % [8]?
**A.** Its Mean % is 16.99%.

**Q.** And the “Inhibition 1” value [9]?
**A.** Its value is -20.29%.

**Q.** What about the “Inhibition 2” value [9] of the same compound?
**A.** Its value is 0.2%.

**Q.** And the “Inhibition 3” value [9]?
**A.** The value was -8.54%.

**Q.** What about the “Inhibition 4” value [9] of the same compound?
**A.** The value was -2.02%.

**Q.** And the Mean % [9]?
**A.** Its Mean % is -7.66%.

**Q.** And the “Inhibition 1” value [10]?
**A.** Its value is 18.86%.

**Q.** What about the “Inhibition 2” value [10] of the same compound?
**A.** Its value is -8.82%.

**Q.** What about the “Inhibition 3” value [10] of the same compound?
**A.** Its value is 17.73%.

**Q.** And the “Inhibition 4” value [10]?
**A.** The value was 11.41%.

**Q.** What about the Mean % [10] of the same compound?
**A.** The Mean % was 9.8%.

**Q.** What about the “Inhibition 1” value [11] of the same compound?
**A.** Its value is 29.45%.

**Q.** What about the “Inhibition 2” value [11] of the same compound?
**A.** The value was 46.13%.

**Q.** What about the “Inhibition 3” value [11] of the same compound?
**A.** Its value is 31.41%.

**Q.** And the “Inhibition 4” value [11]?
**A.** Its value is 26.99%.

**Q.** And the Mean % [11]?
**A.** Its Mean % is 33.5%.

**Q.** Which results are given for O=c1oc2ccccc2cc1-c1cn2cc(Cc3ccc(F)cc3)sc2n1 [UNC10302680A, iMDK]?
**A.** Inhibition 1 [2]: 11.41%; Inhibition 2 [2]: -7.84%; Inhibition 3 [2]: -2.59%; Inhibition 4 [2]: 7.52%; Mean % [2]: 2.13%; Mean % ([3]; D3, mean inhibition): -15.93%; Inhibition 1 ([3]; D3, replicate 1): -10.82%; Inhibition 2 ([3]; D3, replicate 2): -16.8%; Inhibition 3 ([3]; D3, replicate 3): -16.41%; Inhibition 4 ([3]; D3, replicate 4): -19.69%; Inhibition 1 [4]: 9.18%; Inhibition 2 [4]: -38.65%; Inhibition 3 [4]: -23.13%; Inhibition 4 [4]: -31.52%; Mean % [4]: -21.03%; Inhibition 1 [5]: -23.4%; Inhibition 2 [5]: -19.7%; Inhibition 3 [5]: -5.6%; Inhibition 4 [5]: -21.38%; Mean % [5]: -17.52%; Inhibition 1 [6]: 3.08%; Inhibition 2 [6]: -14.65%; Inhibition 3 [6]: -14.65%; Inhibition 4 [6]: -17.01%; Mean % [6]: -10.81%; Mean % ([7]; NET, mean inhibition): 3.1%; Inhibition 1 ([7]; NET, replicate 1): -7.15%; Inhibition 2 ([7]; NET, replicate 2): -15.77%; Inhibition 3 ([7]; NET, replicate 3): -1.08%; Inhibition 4 ([7]; NET, replicate 4): 36.38%; Inhibition 1 ([7]; Receptor NET, 10 μM): 34.12%; Inhibition 2 ([7]; Receptor NET, 10 μM): 0.12%; Inhibition 3 ([7]; Receptor NET, 10 μM): -3.41%; Inhibition 4 ([7]; Receptor NET, 10 μM): -3.8%; Mean % [7, 12]: 6.76%; Inhibition 1 [8]: -0.74%; Inhibition 2 [8]: -17.55%; Inhibition 3 [8]: -6.68%; Inhibition 4 [8]: -10.7%; Mean % [8]: -8.92%; Inhibition 1 [9]: -5.99%; Inhibition 2 [9]: -28.7%; Inhibition 3 [9]: -13.62%; Inhibition 4 [9]: -18.86%; Mean % [9]: -16.79%; Inhibition 1 [10]: 5.91%; Inhibition 2 [10]: 9.31%; Inhibition 3 [10]: -0.89%; Inhibition 4 [10]: -9.8%; Mean % [10]: 1.13%; Inhibition 1 [11]: 16.2%; Inhibition 2 [11]: -2.94%; Inhibition 3 [11]: -21.1%; Inhibition 4 [11]: -2.94%; Mean % [11]: -2.7%
